# US20240043427A1 (Gilead Sciences, Inc., priority 2020, published 2024)
# Target: CD73 (Homo sapiens (Human), UniProt P21589)
# Type: biochemical
# Conditions: 1 mM NaH2PO4 in enzyme buffer, CD73 0.3 nM, AMP 15 uM
# Sequence of CD73 (P21589 27-574): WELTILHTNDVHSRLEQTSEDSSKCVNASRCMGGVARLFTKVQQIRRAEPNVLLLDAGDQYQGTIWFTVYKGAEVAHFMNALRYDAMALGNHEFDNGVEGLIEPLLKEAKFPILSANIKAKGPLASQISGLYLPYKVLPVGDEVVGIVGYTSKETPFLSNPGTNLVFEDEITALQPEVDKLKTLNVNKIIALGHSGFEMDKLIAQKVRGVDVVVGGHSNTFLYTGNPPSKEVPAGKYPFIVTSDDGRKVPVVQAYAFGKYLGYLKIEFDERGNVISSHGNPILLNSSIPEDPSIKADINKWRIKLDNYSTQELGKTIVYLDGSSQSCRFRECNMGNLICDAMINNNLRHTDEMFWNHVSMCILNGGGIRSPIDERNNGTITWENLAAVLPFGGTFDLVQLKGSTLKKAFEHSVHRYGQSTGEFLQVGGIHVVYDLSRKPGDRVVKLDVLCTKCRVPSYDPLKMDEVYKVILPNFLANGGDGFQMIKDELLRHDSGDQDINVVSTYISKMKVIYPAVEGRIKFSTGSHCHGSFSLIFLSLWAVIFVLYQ
row,SMILES,IC50
1,"O=c1[nH]cc(-c2cc([C@H]3C[C@@H]3c3ccc4c(F)nn(CC(F)(F)F)c4c3)c3nccn3n2)c(=O)[nH]1 (racemic) [Example 117, 5-(8-((1S,2S)-2-(3-fluoro-1-(2,2,2-trifluoroethyl)-1H-indazol-6-yl)cyclopropyl)imidazo[1,2-b]pyridazin-6-yl)pyrimidine-2,4(1H,3H)-dione]",0.89 nM
2,"O=c1[nH]cc(-c2cc([C@H]3C[C@@H]3c3ccc4cnn(CC5CC5(F)F)c4c3)c3nccn3n2)c(=O)[nH]1 (mixture of isomers) [Example 118, 5-(8-((1S,2S)-2-(1-((2,2-difluorocyclopropyl)methyl)-1H-indazol-6-yl)cyclopropyl)imidazo[1,2-b]pyridazin-6-yl)pyrimidine-2,4(1H,3H)-dione]",0.79 nM
3,"O=c1[nH]cc(-c2cc([C@H]3C[C@@H]3c3cc4c(ccn4CC(F)(F)F)cn3)c3nccn3n2)c(=O)[nH]1 (racemic) [Example 127, 5-(8-((1S,2S)-2-(1-(2,2,2-trifluoroethyl)-1H-pyrrolo[3,2-c]pyridin-6-yl)cyclopropyl)imidazo[1,2-b]pyridazin-6-yl)pyrimidine-2,4(1H,3H)-dione]",1.13 nM
4,"O=c1[nH]cc(-c2cc([C@H]3C[C@@H]3c3ccc4c(C5CC5)nn(CC(F)(F)F)c4c3)c3nccn3n2)c(=O)[nH]1 (racemic) [Example 128, 5-(8-((1S,2S)-2-(3-cyclopropyl-1-(2,2,2-trifluoroethyl)-1H-indazol-6-yl)cyclopropyl)imidazo[1,2-b]pyridazin-6-yl)pyrimidine-2,4(1H,3H)-dione]",1.84 nM
5,"O=c1[nH]cc(-c2cc([C@H]3C[C@@H]3c3ccc4cnn(CC5CC5)c4c3)c3nccn3n2)c(=O)[nH]1 (racemic) [Example 130, 5-(8-((1S,2S)-2-(1-(cyclopropylmethyl)-1H-indazol-6-yl)cyclopropyl)imidazo[1,2-b]pyridazin-6-yl)pyrimidine-2,4(1H,3H)-dione]",1.01 nM
6,"O=c1[nH]cc(-c2cc([C@H]3C[C@@H]3c3ccc4ncsc4c3)c3nc(C4CC4)cn3n2)c(=O)[nH]1 (racemic) [Example 143, 5-(8-((1S,2S)-2-(benzo[d]thiazol-6-yl)cyclopropyl)-2-cyclopropylimidazo[1,2-b]pyridazin-6-yl)pyrimidine-2,4(1H,3H)-dione]",5.69 nM
7,"N#Cc1ccc([C@H]2C[C@@H]2c2cc(-c3c[nH]c(=O)[nH]c3=O)nn3c(F)cnc23)nc1 (racemic) [Example 151, 6-((1S,2S)-2-(6-(2,4-dioxo-1,2,3,4-tetrahydropyrimidin-5-yl)-3-fluoroimidazo[1,2-b]pyridazin-8-yl)cyclopropyl)nicotinonitrile]",1.36 nM
8,"O=c1[nH]cc(-c2cc([C@H]3C[C@@H]3c3ccc4cccnc4c3)c3nccn3n2)c(=O)[nH]1 (racemic) [Example 154, 5-(8-((1S,2S)-2-(quinolin-7-yl)cyclopropyl)imidazo[1,2-b]pyridazin-6-yl)pyrimidine-2,4(1H,3H)-dione]",1.56 nM
9,"N#Cc1ccc([C@H]2C[C@@H]2c2cc(-c3c[nH]c(=O)[nH]c3=O)nn3ccnc23)nc1 (racemic) [Example 155, 6-((1S,2S)-2-(6-(2,4-dioxo-1,2,3,4-tetrahydropyrimidin-5-yl)imidazo[1,2-b]pyridazin-8-yl)cyclopropyl)nicotinonitrile]",2.04 nM
10,"O=c1[nH]cc(-c2cc([C@H]3C[C@@H]3c3ccc4cnccc4c3)c3nccn3n2)c(=O)[nH]1 (racemic) [Example 156, 5-(8-((1S,2S)-2-(isoquinolin-6-yl)cyclopropyl)imidazo[1,2-b]pyridazin-6-yl)pyrimidine-2,4(1H,3H)-dione]",0.95 nM
11,"O=c1[nH]cc(-c2cc([C@H]3C[C@@H]3c3ccc4ncccc4c3)c3nccn3n2)c(=O)[nH]1 (racemic) [Example 157, 5-(8-((1S,2S)-2-(quinolin-6-yl)cyclopropyl)imidazo[1,2-b]pyridazin-6-yl)pyrimidine-2,4(1H,3H)-dione]",1.06 nM
12,"O=c1[nH]cc(-c2cc([C@H]3C[C@@H]3c3ccnc(C(F)(F)F)c3)c3nccn3n2)c(=O)[nH]1 (racemic) [Example 160, 5-(8-((1S,2S)-2-(2-(trifluoromethyl)pyridin-4-yl)cyclopropyl)imidazo[1,2-b]pyridazin-6-yl)pyrimidine-2,4(1H,3H)-dione]",15.4 nM
13,"O=c1[nH]cc(-c2cc([C@H]3C[C@@H]3c3ccncc3F)c3nccn3n2)c(=O)[nH]1 (racemic) [Example 161, 5-(8-((1S,2S)-2-(3-fluoropyridin-4-yl)cyclopropyl)imidazo[1,2-b]pyridazin-6-yl)pyrimidine-2,4(1H,3H)-dione]",4.48 nM
14,"O=c1[nH]cc(-c2cc([C@H]3C[C@@H]3c3cnc4ccccc4c3)c3nccn3n2)c(=O)[nH]1 (racemic) [Example 163, 5-(8-((1S,2S)-2-(quinolin-3-yl)cyclopropyl)imidazo[1,2-b]pyridazin-6-yl)pyrimidine-2,4(1H,3H)-dione]",2.13 nM
15,"O=c1[nH]cc(-c2cc([C@H]3C[C@@H]3c3cncc(F)c3)c3nccn3n2)c(=O)[nH]1 (racemic) [Example 164, 5-(8-((1S,2S)-2-(5-fluoropyridin-3-yl)cyclopropyl)imidazo[1,2-b]pyridazin-6-yl)pyrimidine-2,4(1H,3H)-dione]",3.58 nM
16,"O=c1[nH]cc(-c2cc([C@H]3C[C@@H]3c3ccc(C(F)(F)F)cc3F)c3nccn3n2)c(=O)[nH]1 (racemic) [Example 165, 5-(8-((1S,2S)-2-(2-fluoro-4-(trifluoromethyl)phenyl)cyclopropyl)imidazo[1,2-b]pyridazin-6-yl)pyrimidine-2,4(1H,3H)-dione]",5.06 nM

# Results, then the compound that gave them:
row,IC50,SMILES
1,43 nM,"O=c1[nH]cc(-c2cc([C@H]3C[C@@H]3c3cccc4ccncc34)c3nccn3n2)c(=O)[nH]1 (racemic) [Example 166, 5-(8-((1S,2S)-2-(isoquinolin-8-yl)cyclopropyl)imidazo[1,2-b]pyridazin-6-yl)pyrimidine-2,4(1H,3H)-dione]"
2,33 nM,"O=c1[nH]cc(-c2cc([C@H]3C[C@@H]3c3ccnc4ccccc34)c3nccn3n2)c(=O)[nH]1 (racemic) [Example 167, 5-(8-((1S,2S)-2-(quinolin-4-yl)cyclopropyl)imidazo[1,2-b]pyridazin-6-yl)pyrimidine-2,4(1H,3H)-dione]"
3,72.5 nM,"O=c1[nH]cc(-c2cc([C@H]3C[C@@H]3c3cccc4cnccc34)c3nccn3n2)c(=O)[nH]1 (racemic) [Example 168, 5-(8-((1S,2S)-2-(isoquinolin-5-yl)cyclopropyl)imidazo[1,2-b]pyridazin-6-yl)pyrimidine-2,4(1H,3H)-dione]"
4,13.9 nM,"CCOC(=O)c1cn2nc(-c3c[nH]c(=O)[nH]c3=O)cc([C@H]3C[C@@H]3c3ccc(F)cc3)c2n1 (racemic) [Example 172, ethyl 6-(2,4-dioxo-1,2,3,4-tetrahydropyrimidin-5-yl)-8-((1S,2S)-2-(4-fluorophenyl)cyclopropyl)imidazo[1,2-b]pyridazine-2-carboxylate]"
5,2.65 nM,"O=c1[nH]cc(-c2cc([C@H]3C[C@@H]3c3ccccn3)c3ncc(F)n3n2)c(=O)[nH]1 (racemic) [Example 178, 5-(3-fluoro-8-((1S,2S)-2-(pyridin-2-yl)cyclopropyl)imidazo[1,2-b]pyridazin-6-yl)pyrimidine-2,4(1H,3H)-dione]"
6,16.7 nM,"O=c1[nH]cc(-c2cc([C@H]3C[C@@H]3c3cncnc3)c3ncc(F)n3n2)c(=O)[nH]1 (racemic) [Example 179, 5-(3-fluoro-8-((1S,2S)-2-(pyrimidin-5-yl)cyclopropyl)imidazo[1,2-b]pyridazin-6-yl)pyrimidine-2,4(1H,3H)-dione]"
7,2.2 nM,"O=c1[nH]cc(-c2cc([C@H]3C[C@@H]3c3cccnc3)c3ncc(F)n3n2)c(=O)[nH]1 (racemic) [Example 180, 5-(3-fluoro-8-((1S,2S)-2-(pyridin-3-yl)cyclopropyl)imidazo[1,2-b]pyridazin-6-yl)pyrimidine-2,4(1H,3H)-dione]"
8,2.42 nM,"O=c1[nH]cc(-c2cc([C@H]3C[C@@H]3c3ccncc3)c3ncc(F)n3n2)c(=O)[nH]1 (racemic) [Example 181, 5-(3-fluoro-8-((1S,2S)-2-(pyridin-4-yl)cyclopropyl)imidazo[1,2-b]pyridazin-6-yl)pyrimidine-2,4(1H,3H)-dione]"
9,1.24 nM,"O=c1[nH]cc(-c2cc([C@H]3C[C@@H]3c3ccc(Cl)cc3)c3ncc(F)n3n2)c(=O)[nH]1 (racemic) [Example 182, 5-(8-((1S,2S)-2-(4-chlorophenyl)cyclopropyl)-3-fluoroimidazo[1,2-b]pyridazin-6-yl)pyrimidine-2,4(1H,3H)-dione]"
10,2.52 nM,"O=c1[nH]cc(-c2cc([C@H]3C[C@@H]3c3ccc(C(F)(F)F)cc3)c3ncc(F)n3n2)c(=O)[nH]1 (racemic) [Example 183, 5-(3-fluoro-8-((1S,2S)-2-(4-(trifluoromethyl)phenyl)cyclopropyl)imidazo[1,2-b]pyridazin-6-yl)pyrimidine-2,4(1H,3H)-dione]"
11,2.86 nM,"Cn1cc([C@H]2C[C@@H]2c2cc(-c3c[nH]c(=O)[nH]c3=O)nn3ccnc23)ccc1=O (racemic) [Example 184, 5-(8-((1S,2S)-2-(1-methyl-6-oxo-1,6-dihydropyridin-3-yl)cyclopropyl)imidazo[1,2-b]pyridazin-6-yl)pyrimidine-2,4(1H,3H)-dione]"
12,1.24 nM,"CC1(C)C(=O)N(CC(F)(F)F)c2cc([C@H]3C[C@@H]3c3cc(-c4c[nH]c(=O)[nH]c4=O)nn4c(Cl)cnc34)ccc21 (racemic) [Example 212, 5-[3-chloro-8-[(1S,2S)-2-[3,3-dimethyl-2-oxo-1-(2,2,2-trifluoroethyl)indolin-6-yl]cyclopropyl]imidazo[1,2-b]pyridazin-6-yl]-1H-pyrimidine-2,4-dione]"
13,0.92 nM,"O=c1[nH]cc(-c2cc([C@H]3C[C@@H]3c3ccc4c(F)nn(CC(F)(F)F)c4c3)c3ncc(Cl)n3n2)c(=O)[nH]1 (racemic) [Example 213, 5-[3-chloro-8-[(1S,2S)-2-[3-fluoro-1-(2,2,2-trifluoroethyl)indazol-6-yl]cyclopropyl]imidazo[1,2-b]pyridazin-6-yl]-1H-pyrimidine-2,4-dione]"
